{
  "source": "patent US20070043111A1",
  "about": "“Use of ifenprodril in the treatment of pain” (priority 2003, published 2007)",
  "key": {"[1]": {"test_system": "alpha-1 adrenergic receptor", "conditions": "Chenard et al., 1991; cited from earlier work"}, "[2]": {"test_system": "intraplantar carrageenan-induced paw withdrawal latency", "assay": "intraplantar carrageenan-induced paw withdrawal latency in the rat", "type": "in vivo", "protocol": "More particularly, FIG. 1 is a graph showing the effect of (−) threo-ifenprodil when given intranasally or intraperitoneally at 10 and 30 mg/kg on the % change of pressure-induced paw withdrawal latency on the intraplantar carrageenan administered paw in the rat (250 g).\nFIG. 2 is a graph showing the effect of (−) threo-ifenprodil when given intravenously at 0.1 to 3 mg/kg on the % change of pressure-induced paw withdrawal latency on the intraplantar carrageenan administered paw in the rat."}},
  "data": [
    {"smiles": "CC(C(O)c1ccc(O)cc1)N1CCC(Cc2ccccc2)CC1", "note": "(centres unmarked) [Ifenprodil, 2-(4-benzylpiperidino)-1-(4-hydroxyphenyl)-1-propanol]", "values": [
      {"measurement": "alpha-1 adrenergic receptor binding properties", "setting": "[1]", "value": "potent"}
    ]},
    {"smiles": "CC(C(O)c1ccc(O)cc1)N1CCC(Cc2ccccc2)CC1", "note": "(single isomer, unassigned; (-)) [(−) Threo-ifenprodil]", "values": [
      {"measurement": "efficacy on pressure-induced paw withdrawal latency", "setting": "[2]; intravenous, 0.1, 0.3, 1 and 3 mg/kg, FIG. 2", "value": "excellent efficacy"}
    ]},
    {"smiles": "CC(C(O)c1ccc(O)cc1)N1CCC(Cc2ccccc2)CC1", "note": "(racemic) [erythro racemate of ifenprodil]", "values": [
      {"measurement": "intranasal route compared with intraperitoneal route", "setting": "[2]; FIG. 1", "value": "at least equivalent if not superior to the intraperitoneal route"},
      {"measurement": "analgesic effect on pressure-induced paw withdrawal latency", "setting": "[2]; intranasal, 2.5 mg/rat and 7.5 mg/rat, FIG. 1", "value": "markedly analgesic"},
      {"measurement": "analgesic effect on pressure-induced paw withdrawal latency", "setting": "[2]; intraperitoneal, 10 mg/kg and 30 mg/kg, FIG. 1", "value": "markedly analgesic"}
    ]}
  ]
}
